Assay results taken from patent US10975049B2, “Nicotinyl alcohol ether derivative, preparation method therefor, and pharmaceutical composition and uses thereof” (Institute of Materia Medica, Chinese Academy of Medical …, priority 2016, dated 2021).

Tests used:
PD-L1 protein [1] = molecular target: T1, PD-L1 protein (Homo sapiens (Human), UniProt Q9NZQ7); test: Relieving the inhibition of IFNγ by ligand PD-L1 in human PBMC; format: cell-based; settings: 72 h
Method: The expression level of IFNγ can reflect the proliferative activity of T lymphocytes. Using the extracted human PBMC (peripheral blood mononuclear cell), on the basis that T lymphocyte could be activated by the anti-CD3/anti-CD28 antibody, the ligand PD-L1 was added to the inhibit T lymphocyte, the example compounds' capacity of relieving the inhibition by the PD-L1 was investigated.
The specific procedure is as follows. DAKEWE human lymphocyte separation solution (DKW-KLSH-0100) was used to extract PBMC from human whole blood, and PBMC was inoculated into 96 well plate, with 3×10^5 cells per well. […] After 72 h, the expression level of IFNγ in the supernatant was detected by Cisbio IFNγ test kit.

mouse colon cancer MC38 = test: Subcutaneous xenograft model of mouse colon cancer MC38; format: in vivo, C57BL/6 or Bablc mice
Method: The method in subcutaneous xenograft tumor was as follows. The cultured specific tumor cells were digested and collected by centrifugation, and washed with sterile physiological saline for two times and then counted. The cell concentration was adjusted to 5×10^6/ml by physiological saline, and 0.2 ml of cell suspension was inoculated to the right armpit of C57BL/6 or Bablc mice. After inoculation, the animals were randomly divided into two groups in next day. Each group had 6-7 mice. After weighing, the animals were dosed once each day to monitor tumor size. When the tumor size reached to a certain size, the mice was weighed and blood was collected from mice orbit and then the mice were killed by removing the neck. The tumor tissue, thymus tissue and spleen tissue were collected and weighed respectively. Finally, the tumor growth inhibition rate was calculated, and the tumor growth inhibition rate was used to evaluate the level of anti-tumor effect.

PD-L1 protein [2] = molecular target: T1, PD-L1 protein; test: Interaction with PD-L1 protein tested by Biacore (SPR); format: binding
Description: Surface plasmon is a kind of electromagnetic wave on the surface of metal, produced by the interaction of photon and electron in free vibration. Surface plasmon resonance (SPR) is an optical phenomenon that occurs on the surface of two kinds of media, which can be induced by photon or electron. The phenomenon of total reflection of light from light dense medium into light scattering medium will form evanescent wave into light scattering medium. When the total reflected evanescent wave meets the plasma wave on the metal surface, the resonance may occur, and the energy of reflected light decreases and the resonance peak appears on the reflected light energy spectrum. This resonance is called the surface plasmon resonance. The incident angle of the surface plasmon resonance is called the SPR angle. The SPR biosensor provides a sensitive, real-time, non-label detection technique for monitoring the interaction of molecules. The sensor detects the change of the SPR angle, and SPR is also related to the refractive index of the metal surface. When an analyte is bond on the surface of the chip, it leads to the change of the refractive index of the chip surface, which leads to the change of the SPR angle. […] In the interaction analysis, the change of SPR angle is recorded on the sensor map in real time. […]

[3] = system: high metastatic melanoma B16F10; test: Lung metastasis model of high metastatic melanoma B16F10; format: in vivo, C57BL/6 mice; settings: result in words
Method: The method in B16F10 lung metastasis model was as follows. The cultured B16F10 tumor cells were digested and centrifuged and washed for two times with sterile physiological saline and then counted. And the cell concentration was adjusted to 2.5×10^6/ml by physiological saline. 0.2 ml of cells were injected into the C57BL/6 mice through the tail vein, and the tumor cells will gather in the lung of the mice. After inoculation, the animals were randomly divided into two groups in next day. Each group had 6-7 mice. After weighing, the animals were dosed once each day. After 3 weeks, the mice were weighed and killed, the lung tissue was collected and weighed, and the number of lung tumors was counted after being fixed by the Bouin's Fluid. Finally, the tumor growth inhibition rate was calculated, and the tumor growth inhibition rate was used to evaluate the level of anti-tumor effect.
In the study of the mechanism of the above models, the method of flow cytometry was adopted in measuring the total cell proportion of T cells of various types. The specific steps were as follows. The samples were treated at first. For blood tissue, the orbital blood was taken. The red cell lysate was used to remove the red blood cells, and then the PBS buffer was used for wash. After being washed, the cells were collected. For the tumor and spleen, the tissues were grinded with a homogenizer, and then diluted with PBS buffer, then filtered by 300 meshes of screen. After the number of cells was counted for each sample, 1×10^6 cells were added into EP tube and stained for flow antibody. After incubation for 1 h on ice, each sample was washed 2 times with PBS buffer. The cell population was analyzed by VERSE flow instrument of BD Company. The total number of cells in tumor tissue was 1×10^5 and the total number of cells in blood and spleen tissues was 1×10^4. The ratio of T cells to total number of cells was analyzed after flow cytometry.

T1 sequence (Q9NZQ7 19-290): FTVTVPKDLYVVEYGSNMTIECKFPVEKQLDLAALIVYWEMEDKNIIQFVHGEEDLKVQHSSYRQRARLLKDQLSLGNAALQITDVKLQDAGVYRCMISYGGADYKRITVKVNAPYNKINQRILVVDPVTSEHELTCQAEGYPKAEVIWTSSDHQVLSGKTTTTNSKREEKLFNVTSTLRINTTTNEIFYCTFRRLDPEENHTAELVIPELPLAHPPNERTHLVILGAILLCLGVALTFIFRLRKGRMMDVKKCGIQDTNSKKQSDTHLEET

O=C(O)[C@H](CO)NCc1cc(Cl)c(OCc2cccc(-c3ccccc3)c2Br)cc1OCc1cccnc1 [Example 4, (S)—N-(4-(2-bromo-3-phenylbenzyloxy)-5-chloro-2-(pyridin-3-yl-methyleneoxy)benzyl) serine]
IC50 (PD-L1 protein [1]): 0.18 nM | relief of the inhibition of PD-L1 to expression level of IFNγ (PD-L1 protein [1]; at 10 nM): partially relieved | TGI % (tumor growth inhibition rate) (mouse colon cancer MC38; 2.5 mg/kg): 102.3% | Tumor weight(g) Mean ± SD (mouse colon cancer MC38; 2.5 mg/kg): 3.25 ± 0.61 g | Body weight (g) Mean ± SD Begin (mouse colon cancer MC38; 2.5 mg/kg, begin): 18.0 ± 0.4 g | Body weight (g) Mean ± SD End (mouse colon cancer MC38; 2.5 mg/kg): 21.9 ± 0.7 g | TGI % (tumor growth inhibition rate) (mouse colon cancer MC38; 5 mg/kg): 12.7% | Tumor weight(g) Mean ± SD (mouse colon cancer MC38; 5 mg/kg): 2.78 ± 0.44 g | Body weight (g) Mean ± SD End (mouse colon cancer MC38; 5 mg/kg): 22.8 ± 0.6 g | TGI % (tumor growth inhibition rate) (mouse colon cancer MC38; 10 mg/kg): 32.7% | Tumor weight(g) Mean ± SD (mouse colon cancer MC38; 10 mg/kg): 2.14 ± 0.78 g | Body weight (g) Mean ± SD End (mouse colon cancer MC38; 10 mg/kg): 21.5 ± 0.8 g | TGI % (tumor growth inhibition rate) (mouse colon cancer MC38; 20 mg/kg): 41.2% | Tumor weight(g) Mean ± SD (mouse colon cancer MC38; 20 mg/kg): 1.87 ± 0.90 g | Body weight (g) Mean ± SD End (mouse colon cancer MC38; 20 mg/kg): 20.9 ± 1.1 g | kd (PD-L1 protein [2]; PBS-P+, pH7.4, 0.01% DMSO, NTA chip): 2.815e-05 s⁻¹ | Kd (PD-L1 protein [2]; unit inferred, read-out: affinity kD value): 0.0203 nM | percentage of lymphocyte in mouse blood [3]: increase
